Assay results from patent US9708336B2, “Metallo-beta-lactamase inhibitors” (priority 2014, dated 2017).
Where two headings read alike, the source gives them in different places.

Assays:
VIM-1 = VIM-1 (Pseudomonas aeruginosa (strain ATCC 15692 / DSM 22644 / CIP 104116 / JCM 14847 / LMG 12228 / 1C / PRS 101 / PAO1), UniProt A0A0F7KYQ8); assay: Enzyme activity: determination of IC50, fluorescence assay with CCF2-FA substrate (VIM-1); assay type: biochemical; details: VIM-1 enzyme, read-out: VIM-1 IC50
[1] = test system: Escherichia coli expressing NDM-1 (CLB30016); assay: Antibiotic potentiation activity: synergistic concentration (MITC95) with imipenem, OD600 growth; assay type: cell-based; details: for Escherichia coli expressing NDM-1 (CLB 30016) MITC95: concentration giving 95% inhibition of bacterial growth
Method: (§1) Antibiotic Potentiation Activity: Determination of Synergistic Concentration
(§2) The bacterial strains tested included the clinical strains Escherichia coli expressing NDM-1 (CLB30005, CLB30016), Serratia marcescens expressing IMP-1 (CL5741), and Klebsiella pneumoniae expressing VIM-1 (IHMA599644) Inhibitor activity was measured in the presence and absence of imipenem in a 384-well microplate.
(§3) The clinical strains CLB30016, CL5741 and IHMA599644 were grown on trypticase soy agar containing 5% sheep's blood. The clinical strain CLB30005 was grown on Mueller Hinton broth agar containing 8 ug/ml imipenem. The bacteria on agar plates were incubated at 35° C. with humidity overnight. The following day, individual colonies from each clinical strain were picked and resuspended in 5 ml saline to attain an OD600 of 0.14, 0.11, 0.15 and 0.13, for CLB30005, CLB30016, CL5741 and IHMA599644, respectively. These were further diluted 1:100 into 1.1×CAMHB and used to inoculate the test wells as described below.
(§4) Imipenem in 10 mM 3-(N-morpholino)propanesulfonic acid (MOPS, pH 7) was stored in single use aliquots at −80° C. […] On the day of the assay, 4 μl of antibiotic was added to 45 ul of bacteria followed by 1 μl of test compound and mixed by pipetting and with an orbital shaker. The concentration of antibiotic used in the assay was 4 μg/ml, or optionally 1 μg/ml. Microplates were covered and incubated at 35° C. for 22 hours to 24 hours. At the end of the incubation, absorbance was determined using a spectrophotometer.

[2] = test system: Klebsiella pneumoniae expressing VIM-1 (IHMA599644); assay: as above; assay type: cell-based; details: for Klebsiella pneumoniae expressing VIM-1 (IHMA 599644) MITC95: concentration giving 95% inhibition of bacterial growth
Method: as §1, §2, §3, §4

[3] = test system: Serratia marcescens expressing IMP-1 (CL5741); assay: as above; assay type: cell-based; details: for Serratia marcescens expressing IMP-1 (CL5741) MITC95: concentration giving 95% inhibition of bacterial growth
Method: as §1, §2, §3, §4

IMP-1 = IMP-1 (Serratia marcescens, UniProt P52699); assay: biochemical; assay type: biochemical; details: read-out: IMP-1 IC50
Chain of IMP-1 (P52699 whole entry, looked up): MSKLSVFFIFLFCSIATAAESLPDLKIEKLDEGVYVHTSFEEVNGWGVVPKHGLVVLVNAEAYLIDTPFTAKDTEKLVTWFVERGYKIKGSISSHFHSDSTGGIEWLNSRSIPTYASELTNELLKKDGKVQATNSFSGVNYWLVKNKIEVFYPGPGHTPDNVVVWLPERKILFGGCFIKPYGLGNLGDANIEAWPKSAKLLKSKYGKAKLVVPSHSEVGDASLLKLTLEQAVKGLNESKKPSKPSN

NDM-1 = NDM-1 (Klebsiella pneumoniae, UniProt C7C422); assay: biochemical; assay type: biochemical; details: read-out: NDM-1 IC50
Chain of NDM-1 (C7C422 whole entry, looked up, species assumed): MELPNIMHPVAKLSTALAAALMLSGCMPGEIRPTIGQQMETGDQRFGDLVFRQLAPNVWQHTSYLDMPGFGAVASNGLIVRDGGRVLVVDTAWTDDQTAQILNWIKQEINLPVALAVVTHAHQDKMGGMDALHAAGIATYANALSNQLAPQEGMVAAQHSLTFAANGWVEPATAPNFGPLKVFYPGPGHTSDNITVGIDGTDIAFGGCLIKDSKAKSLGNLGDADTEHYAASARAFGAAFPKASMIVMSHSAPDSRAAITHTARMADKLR

[4] = (CLB30016, NDM-1), 95% growth inhibition
[5] = Klebsiella pneumoniae IHMA599644 (VIM-1), 95% growth inhibition
[6] = Serratia marcescens CL5741 (IMP-1), 95% growth inhibition
[7] = Escherichia coli expressing NDM-1 (CLB30016), 95% growth inhibition
[8] = Klebsiella pneumoniae expressing VIM-1 (IHMA599644), 95% growth inhibition
[9] = Serratia marcescens expressing IMP-1 (CL5741), 95% growth inhibition
[10] = fluorescence assay with CCF2-FA substrate
[11] = IMP-1 enzyme, CCF2-FA fluorescence assay
[12] = NDM-1 enzyme, CCF2-FA fluorescence assay
[13] = IMP-1 enzyme, CCF2-FA substrate
[14] = NDM-1 enzyme, CCF2-FA substrate
[15] = CLB30016 (NDM-1), 95% inhibition of bacterial growth
[16] = IHMA599644 (VIM-1), 95% inhibition of bacterial growth
[17] = CL5741 (IMP-1), 95% inhibition of bacterial growth

Cn1cncc1CN1CCC(c2ccc(-c3cccc(S(N)(=O)=O)c3-c3nnn[nH]3)cc2)CC1 [Example 620, 3-[4-[1-[(3-methylimidazol-4-yl)methyl]-4-piperidyl]phenyl]-2-(1H-tetrazol-5-yl)benzenesulfonamide] was tested, and the IC50 (VIM-1; CCF2-FA substrate) was 1030 nM, the “Escherichia coli MITC95” value [1, 4] was 7.813 µM and the “Klebsiella pneumoniae MITC95” value [2, 5] was over 200 µM. The “Serratia marcescens MITC95” value [3, 6] was 2.344 µM.

NCc1ccc(-c2ccc(Br)c(S(N)(=O)=O)c2-c2nn[nH]n2)cc1 [Example 271, 4′-(aminomethyl)-4-bromo-2-(2H-tetrazol-5-yl)-[1,1′-biphenyl]-3-sulfonamide] was tested, and the IC50 (VIM-1; CCF2-FA fluorescence assay) was 11.7 nM, the “Escherichia coli MITC95” value [1, 7] was 0.3906 µM and the “Klebsiella pneumoniae MITC95” value [2, 8] was 2.344 µM. The “Serratia marcescens MITC95” value [3, 9] was 0.5859 µM.

In the case of Cn1ccnc1CN1CCC(c2ccc(-c3cccc(S(N)(=O)=O)c3-c3nnn[nH]3)cc2)CC1 [Example 621, 3-[4-[1-[(1-methylimidazol-2-yl)methyl]-4-piperidyl]phenyl]-2-(1H-tetrazol-5-yl)benzenesulfonamide], the IC50 (VIM-1; CCF2-FA substrate) is reported as 508 nM, the “Escherichia coli MITC95” value [1, 4] is reported as 3.906 µM and the “Klebsiella pneumoniae MITC95” value [2, 5] is reported as over 200 µM. The “Serratia marcescens MITC95” value [3, 6] was 1.563 µM.

With Cc1cc(N)ncc1-c1ccc(C(F)(F)F)c(S(N)(=O)=O)c1-c1nn[nH]n1 [Example 557, 3-(6-amino-4-methyl-3-pyridyl)-2-(2H-tetrazol-5-yl)-6-(trifluoromethyl)benzenesulfonamide] the IC50 (VIM-1; CCF2-FA substrate) was 0.656 nM, the “Escherichia coli MITC95” value [1, 4] was 0.3906 µM and the “Klebsiella pneumoniae MITC95” value [2, 5] was 6.25 µM. For the same molecule, the “Serratia marcescens MITC95” value [3, 6] was 6.25 µM.

NS(=O)(=O)c1c(CCC2CCNCC2)ccc(-c2ccnc3ccccc23)c1-c1nn[nH]n1 [Example 452, 6-(2-(piperidin-4-yl)ethyl)-3-(quinolin-4-yl)-2-(2H-tetrazol-5-yl)benzenesulfonamide] was tested, and the IC50 (VIM-1; CCF2-FA fluorescence assay) was 1.98 nM, the “Escherichia coli MITC95” value [1, 7] was 1.563 µM and the “Klebsiella pneumoniae MITC95” value [2, 8] was 4.688 µM. The “Serratia marcescens MITC95” value [3, 9] was 9.375 µM.

With NS(=O)(=O)c1nccc(NCc2ccccc2)c1-c1nnn[nH]1 [Example 235, 4-(benzylamino)-3-(1H-tetrazol-5-yl)pyridine-2-sulfonamide] the IC50 (IMP-1; [10]) was 3440 nM, the IC50 (NDM-1; [10]) was 142 nM and the “Escherichia coli expressing NDM-1 (CLB 30016) MITC95” value [1] was 12.5 µM. For the same molecule, the “Klebsiella pneumoniae expressing VIM-1 (IHMA 599644) MITC95” value [2] was over 200 µM and the “Serratia marcescens expressing IMP-1 (CL5741) MITC95” value [3] was 200 µM.

NS(=O)(=O)c1c(C(F)(F)F)ccc(-c2ccc3nccn3c2)c1-c1nnn[nH]1 [Example 481, 3-imidazo[1,2-a]pyridin-6-yl-2-(1H-tetrazol-5-yl)-6-(trifluoromethyl)benzenesulfonamide] was tested, and the IC50 (IMP-1; [11]) was 7.11 nM, the IC50 (NDM-1; [12]) was 1.46 nM and the “Escherichia coli MITC95” value [1, 7] was 0.125 µM. For the same molecule, the “Klebsiella pneumoniae MITC95” value [2, 8] was 1.922 µM and the “Serratia marcescens MITC95” value [3, 9] was 0.543 µM.

For NS(=O)(=O)c1c(CC2CCNCC2)ccc(-c2ccc(C3CCNC3)cc2)c1-c1nn[nH]n1 (stereo not shown) [Example 588, 4-(piperidin-4-ylmethyl)-4′-(pyrrolidin-3-yl)-2-(2H-tetrazol-5-yl)-[1,1′-biphenyl]-3-sulfonamide], the IC50 (IMP-1; [13]) was 28.8 nM, the IC50 (NDM-1; [14]) was 6.27 nM and the “Escherichia coli MITC95” value [1, 4] was 1.563 µM. The “Klebsiella pneumoniae MITC95” value [2, 5] was 1.563 µM and the “Serratia marcescens MITC95” value [3, 6] was 3.125 µM.

For CC(C(=O)O)N(C)Cc1ccc(-c2cccc(S(N)(=O)=O)c2-c2nnn[nH]2)cc1 (stereo not shown) [Example 367, N-methyl-N-{[3′-sulfamoyl-2′-(1H-tetrazol-5-yl)biphenyl-4-yl]methyl}alanine], the IC50 (IMP-1; [11]) was 60.3 nM, the IC50 (NDM-1; [12]) was 7.53 nM and the “Escherichia coli MITC95” value [1, 7] was 3.125 µM. The “Klebsiella pneumoniae MITC95” value [2, 8] was 200 µM and the “Serratia marcescens MITC95” value [3, 9] was 3.125 µM.

For NS(=O)(=O)c1cccc(CCc2cccnc2)c1-c1nnn[nH]1 [Example 143, 3-(2-pyridin-3-ylethyl)-2-(1H-tetrazol-5-yl)benzenesulfonamide], the IC50 (IMP-1; [10]) was 98.5 nM, the IC50 (NDM-1; [10]) was 20.7 nM and the “Escherichia coli expressing NDM-1 (CLB 30016) MITC95” value [1] was 0.7813 µM. The “Klebsiella pneumoniae expressing VIM-1 (IHMA 599644) MITC95” value [2] was 200 µM and the “Serratia marcescens expressing IMP-1 (CL5741) MITC95” value [3] was 4.688 µM.

With NS(=O)(=O)c1cccc(-c2nc(-c3ccncc3)cs2)c1-c1nnn[nH]1 [Example 407, 3-[4-(4-pyridyl)thiazol-2-yl]-2-(1H-tetrazol-5-yl)benzenesulfonamide] the IC50 (IMP-1; [11]) was 115 nM, the IC50 (NDM-1; [12]) was 25.8 nM and the “Escherichia coli MITC95” value [1, 7] was 3.125 µM. The “Klebsiella pneumoniae MITC95” value [2, 8] was over 200 µM and the “Serratia marcescens MITC95” value [3, 9] was 3.125 µM.

In the case of CN1C2CCC1CC(NCc1ccc(-c3cccc(S(N)(=O)=O)c3-c3nnn[nH]3)cc1)C2 (stereo not shown) [Example 370, 4′-{[(8-methyl-8-azabicyclo[3.2.1]oct-3-yl)amino]methyl}-2-(1H-tetrazol-5-yl)biphenyl-3-sulfonamide], the IC50 (IMP-1; [11]) is reported as 45.8 nM, the IC50 (NDM-1; [12]) is reported as 7.35 nM and the “Escherichia coli MITC95” value [1, 7] is reported as 1.563 µM. For the same molecule, the “Klebsiella pneumoniae MITC95” value [2, 8] was 200 µM and the “Serratia marcescens MITC95” value [3, 9] was 1.563 µM.

NS(=O)(=O)c1c(C(F)(F)F)ccc(-c2ccc(C3CCNCC3)cc2)c1-c1nn[nH]n1 [Example 269, 4′-(piperidin-4-yl)-2-(2H-tetrazol-5-yl)-4-(trifluoromethyl)-[1,1′-biphenyl]-3-sulfonamide] was tested, and the IC50 (IMP-1; [11]) was 1.43 nM, the IC50 (NDM-1; [12]) was 1.21 nM and the “Escherichia coli MITC95” value [1, 7] was 0.7383 µM. The “Klebsiella pneumoniae MITC95” value [2, 8] was 1.969 µM and the “Serratia marcescens MITC95” value [3, 9] was 0.3125 µM.

With NS(=O)(=O)c1c(C(F)(F)F)ccc([C@H]2CC[C@H](NC3CC[C@H]4NCC[C@@H]34)CC2)c1-c1nnn[nH]1 (stereo partly drawn) [Example 692, 3-{4-[(3aR,6aR)-octahydrocyclopenta[b]pyrrol-4-ylamino]cyclohexyl}-2-(1H-tetrazol-5-yl)-6-(trifluoromethyl)benzene sulfonamide] the IC50 (IMP-1; [13]) was 19.8 nM, the IC50 (NDM-1; [14]) was 6.36 nM and the “Escherichia coli MITC95” value [1, 4] was 1.563 µM. The “Klebsiella pneumoniae MITC95” value [2, 5] was 6.25 µM and the “Serratia marcescens MITC95” value [3, 6] was 3.125 µM.

CN1CCN(c2cc(-c3cccc(S(N)(=O)=O)c3-c3nnn[nH]3)ccn2)CC1 [Example 116, 3-(2-(4-methylpiperazin-1-yl)pyridin-4-yl)-2-(1H-tetrazol-5-yl)benzenesulfonamide] was tested, and the IC50 (IMP-1; [10]) was 226 nM, the IC50 (NDM-1; [10]) was 5.43 nM and the “Escherichia coli expressing NDM-1 (CLB 30016) MITC95” value [1] was 1.563 µM. For the same molecule, the “Klebsiella pneumoniae expressing VIM-1 (IHMA 599644) MITC95” value [2] was 200 µM and the “Serratia marcescens expressing IMP-1 (CL5741) MITC95” value [3] was 9.375 µM.

NC1CCCC(N2CCC(c3ccc(-c4ccc(C(F)(F)F)c(S(N)(=O)=O)c4-c4nnn[nH]4)cc3)CC2)C1 (stereo not shown) [Example 798, 4′-[1-(3-aminocyclohexyl)piperidin-4-yl]-2-(1H-tetrazol-5-yl)-4-(trifluoromethyl)biphenyl-3-sulfonamide] was tested, and the IC50 (IMP-1; [10]) was 2.35 nM, the IC50 (NDM-1; [10]) was 6.05 nM and the “Escherichia coli MITC95” value [1, 15] was 1.563 µM. For the same molecule, the “Klebsiella pneumoniae MITC95” value [2, 16] was 25 µM and the “Serratia marcescens MITC95” value [3, 17] was 3.125 µM.

With NS(=O)(=O)c1c(C(F)(F)F)ccc(-c2ccc(C3CN(CC4CCNCC4)C3)cc2)c1-c1nnn[nH]1 [Example 804, 4′-[1-(piperidin-4-ylmethyl)azetidin-3-yl]-2-(1H-tetrazol-5-yl)-4-(trifluoromethyl)biphenyl-3-sulfonamide] the IC50 (IMP-1; [10]) was 5.78 nM, the IC50 (NDM-1; [10]) was 3.85 nM and the “Escherichia coli MITC95” value [1, 15] was 3.125 µM. The “Klebsiella pneumoniae MITC95” value [2, 16] was 50 µM and the “Serratia marcescens MITC95” value [3, 17] was 6.25 µM.

NC1CCC(N2CC(c3ccc(-c4ccc(C(F)(F)F)c(S(N)(=O)=O)c4-c4nnn[nH]4)cc3)C2)CC1 (stereo not shown) [Example 809, 4′-[1-(4-aminocyclohexyl)azetidin-3-yl]-2-(1H-tetrazol-5-yl)-4-(trifluoromethyl)biphenyl-3-sulfonamide] was tested, and the IC50 (IMP-1; [10]) was 11.3 nM, the IC50 (NDM-1; [10]) was 4.02 nM and the “Escherichia coli MITC95” value [1, 15] was 3.125 µM. For the same molecule, the “Klebsiella pneumoniae MITC95” value [2, 16] was 50 µM and the “Serratia marcescens MITC95” value [3, 17] was 6.25 µM.
